Legend:
Assay type in all cases: in vivo, rat
[1] = system: Sprague Dawley rats; test: Lacrimal gland removal model with pain behavior read out (wipe test); conditions: rats after lacrimal gland removal; after two and four weeks of treatment, compared to vehicle (FIG. 1)
Experimental: Lacrimal Gland Removal Model with Pain Behavior Read Out
(§1) Sprague Dawley rats were anesthetized by intraperitoneal injection of 75 mg/kg ketamine +7.5 mg/kg xylazine hydrochloride. After removal of the facial hair, a 2 mm incision was carefully made between temporal lid margin and zygomatic arch. Bluntly separating the underlying tissue, exposing the fascia covering the intra-orbital lacrimal gland, avoiding the nerves and blood vessels. A small incision was made on the fascia, and the intra-orbital gland was gently pulled out and excised. The incision was sutured with a 8-0 polysorb suture and the skin was closed with a 5-0 polysorb suture (Ethilon; Ethicon Inc, Somerville, N.J.). A 3 mm incision was made just below the earlobe, and the extra-orbital lacrimal gland was pulled out and excised along its stem. This incision was closed in a manner similar as described above.
Acclimate rat in a quiet, clean, clear cage for 15 minutes. Gently hold head of rat, add one drop of 5M NaCl in the rat right eye, and start count wipes (front limb wipe across the face) for 30 seconds. Repeat wipe test in left eye. Wash each eye with 10 ml NS. […] The number of eye wipes over a period of thirty seconds was determined for each animal and averaged at various timepoints. […]

[2] = Evaluation of pharmacokinetics after topical eye drops; conditions: rats, topical eye drops 1 mg/mL in castor oil over four to seven days, expected trough, n = 2; for Mean concentration of test compound, Back of the eye / Mean concentration of test compound, Cornea / Mean concentration of test compound, Lacrimal gland and duct / Mean concentration of test compound, Lens and humor: wet tissue weight
Experimental: Evaluation of Pharmacokinetics
To evaluate the pharmacokinetics of test substances in vivo, these test substances are dissolved in appropriate formulation vehicles (e.g. castor oil). The test substances are then administered to rats topically as eye drops over four to seven days. Administered doses range usually between 0.1 to 5 mg/mL. Blood samples and ocular tissue samples are taken at the time of expected trough concentration, i.e. just before the next dosing would have occurred. Blood samples are retrieved via exsanguination in vials containing appropriate anticoagulants, such as lithium heparinate or potassium EDTA. Plasma is generated from the blood via centrifugation. Eyes are enucleated and briefly washed in PBS to remove possible remains of the topical formulation. Eyes are dissected and tissues of interest, e.g. cornea, lacrimal gland and duct, lens and humor and back of the eye tissue, are collected separately. Ocular tissues are pooled per individual animal, diluted in appropriate amounts of 0.9% NaCl in water and homogenized using a Tissuelyzer or equivalent system. The quantitative measurement of the test substances in the samples is performed using calibration curves in the respective matrices. The protein content of the samples is precipitated using acetonitrile or methanol. Thereafter, the samples are separated using HPLC in combination with reversed phase chromatography columns. The HPLC system is coupled to a triple quadrupole mass spectrometer via an electrospray interface. Particularly, HPLC was performed using a C18 column (e.g. Phenomenex Kinetex C18 5 mm 5 μm 2.1×50) and a mixture of 10 mM ammonium acetate pH6.8 and acetonitrile in a gradient with an increasing fraction of organic solvent. The retention time for the compound of example 2 was for example ca. 2.6 min.
Data: Mean concentration of test compound (μg/L of plasma or μg/kg of wet tissue weight), samples with concentrations below the lower limit of quantification (LOQ) are denoted as “<LOQ”, n corresponds to the number of the treated animals

[3] = system: Sprague Dawley rats; test: Lacrimal gland removal model, corneal nerve density measurement (IVCM); conditions: rats after lacrimal gland removal; treatment started two weeks post removal, compared to vehicle (FIG. 2)
Experimental: as §1
Nerve Density Measurement: […]

Structure (SMILES)	Eye wipe count (5M NaCl, 30 seconds) [1]	Mean concentration of test compound, Plasma [2]	Mean concentration of test compound, Back of the eye [2]	Mean concentration of test compound, Cornea [2]	Mean concentration of test compound, Lacrimal gland and duct [2]	Mean concentration of test compound, Lens and humor [2]	Corneal nerve density (fold difference from baseline) [3]
CC(=O)N(c1ccc(F)cc1)c1cc(NC(=O)Cc2cccc(F)c2Cl)ccn1 [Example 2, N-{4-[2-(2-chloro-3-fluorophenyl)acetamido]pyridin-2-yl}-N-(4-fluorophenyl)acetamide]	no apparent further increase in wipe count	0.4 ng/mL	13.8 µg/kg	44.9 µg/kg	17.4 µg/kg	1.8 µg/kg	a decline in nerve density could be observed
N#Cc1cnn(-c2ccc(NC(=O)Cc3ccccc3Cl)cc2S(N)(=O)=O)c1 [2-(2-Chlorophenyl)-N-[4-(4-cyano-1H-pyrazol-1-yl)-3-sulfamoylphenyl]acetamide, reference compound]		2.37 ng/mL	14.5 µg/kg	13.4 µg/kg	33.4 µg/kg	<4.0 µg/kg	
